Experimental data published in EP0024842A1, “Methyl (5-(2-thienylhydroxymethyl)-1H-benzimidazol-2-yl) carbamate, process for its preparation and compositions containing it” (priority 1979, dated 1981).

How the values were obtained:
[1] = system: rats; test: Embryotoxic effect in rats, 'another test' at equimolar doses; assay type: in vivo, rat
[2] = system: pregnant Sprague-Dawley rats; test: Embryotoxic activity in pregnant rats (antimitotic test according to Delatour and Richard), dose series; settings: orally; for Embryo-toxicity %: daily from the 8th to the 15th day of gestation; for # Fetus: 8th to 15th day of gestation

SMILES	% (embryotoxic effect) ([1]; Oral Dose Per Day 5.05 mg/kg) [%]	Embryo-toxicity % ([2]; 3.03 mg/kg/day) [%]	Embryo-toxicity % ([2]; 5.05 mg/kg/day) [%]	% (embryotoxic effect) ([1]; Oral Dose Per Day 5.02 mg/kg) [%]	Foet./ Implant ([1]; Oral Dose Per Day 5.02 mg/kg)	# Fetus ([2]; 7.5 mg/kg/day, 40 implantations)	Embryo-toxicity % ([2]; 7.5 mg/kg/day) [%]	# Fetus ([2]; 15 mg/kg/day, 30 implantations)	Embryo-toxicity % ([2]; 15 mg/kg/day) [%]	# Fetus ([2]; 30 mg/kg/day, 28 implantations)	Embryo-toxicity % ([2]; 30 mg/kg/day) [%]
COC(=O)Nc1nc2ccc(C(O)c3cccs3)cc2[nH]1 (racemic) [I, methyl [5-(2-thienylhydroxymethyl)-lH-benzimidazol-2-yl]-carbamate]	100	12.06	100	–	–	–	–	–	–	–	–
COC(=O)Nc1nc2ccc(C(=O)c3cccs3)cc2[nH]1 [II, Methyl 5-[(2-thenoyl)-lH-benzimidazol-2-yl]-carbamate]	–	–	–	3.5	55/57	0	100	0	100	0	100
